Results as given in PubChem BioAssay (NCI).
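96-well plates; 48 h exposure; 5 concentrations. Endpoints by linear interpolation between flanking doses. Not reached: highest tested concentration assigned. TGI denotes the concentration required for complete inhibition of growth.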

What was measured:
Assay in all cases: NCI anticancer screen, dose series, 48 h
[1] = test system: XF 498 CNS
[2] = test system: HT29 colon
[3] = test system: SW-620 colon
[4] = test system: SK-MEL-28 melanoma
[5] = test system: OVCAR-5 ovarian
[6] = test system: MALME-3M melanoma
[7] = test system: COLO 205 colon
[8] = test system: M19-MEL melanoma
[9] = test system: SF-539 CNS
[10] = test system: TK-10 renal
[11] = test system: CCRF-CEM leukemia
[12] = test system: A498 renal
[13] = test system: HCT-116 colon
[14] = test system: OVCAR-8 ovarian
[15] = test system: MOLT-4 leukemia
[16] = test system: SNB-19 CNS
[17] = test system: UACC-257 melanoma
[18] = test system: RXF 393 renal
[19] = test system: UO-31 renal
[20] = test system: HOP-18 NSCLC
[21] = test system: NCI-H23 lung
[22] = test system: SF-295 CNS
[23] = test system: HOP-92 NSCLC
[24] = test system: UACC-62 melanoma
[25] = test system: ACHN renal
[26] = test system: A549 NSCLC
[27] = test system: OVCAR-3 ovarian
[28] = test system: M14 melanoma
[29] = test system: RXF-631 renal
[30] = test system: KM20L2 colon
[31] = test system: IGROV1 ovarian
[32] = test system: DMS 273 small cell lung
[33] = test system: NCI-H226 lung
[34] = test system: KM12 colon
[35] = test system: SK-MEL-5 melanoma
[36] = test system: SNB-78 CNS
[37] = test system: CAKI-1 renal
[38] = test system: K-562 leukemia
[39] = test system: SNB-75 CNS
[40] = test system: SF-268 CNS
[41] = test system: SK-OV-3 ovarian
[42] = test system: U251 CNS
[43] = test system: LXFL 529 NSCLC
[44] = test system: HCC-2998 colon
[45] = test system: NCI-H522 lung
[46] = test system: EKVX NSCLC
[47] = test system: SK-MEL-2 melanoma
[48] = test system: SR leukemia
[49] = test system: DMS 114 small cell lung
[50] = test system: LOX IMVI melanoma
[51] = test system: SN12C renal
[52] = test system: 786-0 renal
[53] = test system: HOP-62 NSCLC
[54] = test system: HL-60(TB) leukemia
[55] = test system: DLD-1 colon
[56] = test system: OVCAR-4 ovarian
[57] = test system: NCI-H460 lung
[58] = test system: RPMI-8226 leukemia
[59] = test system: HCT-15 colon

With `COC(=O)C#CCC1CCCC1C1SCCS1` (centres undefined) the TGI [1] was > 100 µM, the TGI [2] was > 100 µM and the TGI [3] was > 100 µM. The TGI [4] was > 100 µM, the TGI [5] was > 100 µM and the TGI [6] was > 100 µM. The TGI [7] was > 100 µM, the TGI [8] was > 100 µM and the TGI [9] was > 100 µM. For the same compound, the TGI [10] was > 100 µM, the TGI [11] was 72.3 µM and the TGI [12] was > 100 µM. For the same compound, the TGI [13] was > 100 µM, the TGI [14] was > 100 µM and the TGI [15] was 75.6 µM. For the same compound, the TGI [16] was > 100 µM, the TGI [17] was > 100 µM and the TGI [18] was > 100 µM. For the same compound, the TGI [19] was > 100 µM, the TGI [20] was > 100 µM and the TGI [21] was > 100 µM. For the same compound, the TGI [22] was > 100 µM, the TGI [23] was > 100 µM and the TGI [24] was > 100 µM. The TGI [25] was > 100 µM, the TGI [26] was > 100 µM and the TGI [27] was > 100 µM. For the same compound, the TGI [28] was > 100 µM, the TGI [29] was > 100 µM and the TGI [30] was > 100 µM. The TGI [31] was > 100 µM, the TGI [32] was > 100 µM and the TGI [33] was > 100 µM. The TGI [34] was > 100 µM, the TGI [35] was > 100 µM and the TGI [36] was > 100 µM. The TGI [37] was > 100 µM, the TGI [38] was > 100 µM and the TGI [39] was > 100 µM. The TGI [40] was > 100 µM, the TGI [41] was > 100 µM and the TGI [42] was > 100 µM. The TGI [43] was > 100 µM, the TGI [44] was > 100 µM and the TGI [45] was > 100 µM. The TGI [46] was > 100 µM, the TGI [47] was 74.6 µM and the TGI [48] was 84.3 µM. The TGI [49] was > 100 µM, the TGI [50] was > 100 µM and the TGI [51] was > 100 µM. The TGI [52] was > 100 µM, the TGI [53] was > 100 µM and the TGI [54] was > 100 µM. The TGI [55] was > 100 µM and the TGI [56] was > 100 µM.

For `COc1cc(/C=C\c2ccncc2)cc(OC)c1OC`, the TGI [1] was > 100 µM, the TGI [2] was > 100 µM and the TGI [3] was > 100 µM. The TGI [4] was > 100 µM, the TGI [5] was > 100 µM and the TGI [6] was > 100 µM. For the same compound, the TGI [7] was > 100 µM, the TGI [9] was > 100 µM and the TGI [10] was > 100 µM. The TGI [11] was > 100 µM, the TGI [12] was > 100 µM and the TGI [13] was > 100 µM. The TGI [14] was > 100 µM, the TGI [15] was > 100 µM and the TGI [16] was > 100 µM. The TGI [17] was > 100 µM, the TGI [18] was > 100 µM and the TGI [19] was > 100 µM. The TGI [20] was > 100 µM, the TGI [22] was > 100 µM and the TGI [23] was > 100 µM. The TGI [24] was > 100 µM, the TGI [57] was > 100 µM and the TGI [25] was > 100 µM. For the same compound, the TGI [26] was > 100 µM, the TGI [27] was > 100 µM and the TGI [28] was > 100 µM. For the same compound, the TGI [29] was > 100 µM, the TGI [58] was > 100 µM and the TGI [30] was > 100 µM. The TGI [31] was > 100 µM, the TGI [59] was > 100 µM and the TGI [32] was > 100 µM. For the same compound, the TGI [33] was > 100 µM, the TGI [34] was > 100 µM and the TGI [35] was > 100 µM. For the same compound, the TGI [36] was > 100 µM, the TGI [37] was > 100 µM and the TGI [38] was > 100 µM. The TGI [39] was > 100 µM, the TGI [40] was > 100 µM and the TGI [42] was > 100 µM. The TGI [43] was > 100 µM, the TGI [45] was > 100 µM and the TGI [46] was > 100 µM. For the same compound, the TGI [49] was > 100 µM, the TGI [50] was > 100 µM and the TGI [51] was > 100 µM. The TGI [52] was > 100 µM, the TGI [53] was > 100 µM and the TGI [54] was > 100 µM. The TGI [55] was > 100 µM and the TGI [56] was > 100 µM.
